Reference: patent publication US4091206A, “Quinoxaline-1,4-dioxide derivatives” (Egyt Gyogyszervegyeszeti Gyar, priority 1974, dated 1978)

Key:
oral toxicity on mice = conditions: mouse, in vivo
Description: (§1) The fodder utilization factors determined for the compounds according to the invention, furthermore the oral toxicity data of the novel compounds measured on mice are listed in Table 1. For the sake of comparison the respective data of some known compounds structurally related to those of formula I are also given.

pigs = test: weight gain increasing effect on pigs (fodder admixed with compound), fodder utilization factor; type: in vivo; conditions: fodder admixed with 50 mg./kg. of compound, index from feeding coefficient and percentage daily weight gain, control 50
Protocol: When utilized as fodder additives, the new compounds according to the invention increase the weight gain and fodder utilization of pigs. The weight gain increasing effect of the compounds was tested on pigs as follows:
The animals were fed under the same conditions with fodders of the same amount and composition. In the test groups the animals received a fodder admixed with 50 mg./kg. of the compound to be tested, whereas no additive was admixed with the fodder in the control group.
The weight gain was measured daily, and the feeding coefficient (amount of consumed fodder resulting in a weight gain of 1 kg.) was calculated. The percentage daily weight gain was calculated by the formula [formula]
Since the rate of weight gain increasing effect depends on both the feeding coefficient and the percentage daily weight gain, and because of the actual fodder consumption and the time required to reach the slaughter weight are the important factors of economical animal husbandry, an index characteristic of the rate of weight gain increase was calculated from the above data by the equation [formula] The higher is the fodder utilization factor the more economic is the pig-breeding.
as §1

| SMILES | LD50 (oral toxicity on mice; po) [mg/kg] | Fodder utilization factor (pigs) | LD50 (oral toxicity on mice; oral, mice) [mg/kg] |
| --- | --- | --- | --- |
| O=C(Cc1cccc2ccccc12)NN=Cc1c[n+]([O-])c2ccccc2[n+]1[O-] [1-napthylmethyl, 2-(1'-Naphthyl-acetyl)-hydrazono-formyl-quinoxaline-1,4-dioxide] | 13000 | 93.5 |  |
| O=C(NN=Cc1c[n+]([O-])c2ccccc2[n+]1[O-])c1ccncc1 [Example 4-pyridyl, 2-(Isonicotinoyl)-hydrazono-formyl-quinoxaline-1,4-dioxide] |  | 91 | 12000 |
| O=C(NN=Cc1c[n+]([O-])c2ccccc2[n+]1[O-])c1ccc([N+](=O)[O-])o1 [Example 5-nitrofuryl, 2-(5'-Nitro-2'-furanoyl)-hydrazono-formyl-quinoxaline-1,4-dioxide] | 14000 | 91 |  |
| CCCCCCC(=O)NN=Cc1c[n+]([O-])c2ccccc2[n+]1[O-] [hexyl, 2-(Hexylcarbonyl-hydrazono-formyl)-quinoxaline-1,4-dioxide] | 4000 | 53 |  |
| COC(=O)NN=Cc1c[n+]([O-])c2ccccc2[n+]1[O-] [methoxy, 2-(Methoxycarbonyl-hydrazono-formyl)-quinoxaline-1,4-dioxide] |  | 66 | 4000 |
| O=C(NN=Cc1c[n+]([O-])c2ccccc2[n+]1[O-])c1ccccc1 [phenyl, 2-(Benzoyl-hydrazono-formyl)-quinoxaline-1,4-dioxide] |  | 66 | 4000 |
